ChEMBL document CHEMBL1201862, “PubChem BioAssay data set” (2004)
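1) Cells in 96-well plates. 2) Compound, 48 h, 5 concentrations. 3) Linear interpolation between surrounding doses. 4) Unreached endpoint = highest concentration. Here, GI50 denotes the concentration required for 50% inhibition of growth.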 Calls of active or inactive are those of the source. Cut-off read from the data, not from the text of the source: active = GI50 up to about 1.1 µM and inactive = higher.

Assays:
Assay in all cases: NCI-60 cell line screen, 48 h
CAKI-1 = tested on: CAKI-1
EKVX = tested on: EKVX
IGROV-1 = tested on: IGROV-1
RXF 393 = tested on: RXF 393
HOP-62 = tested on: HOP-62
SW-620 = tested on: SW-620
SF-295 = tested on: SF-295
HCT-116 = tested on: HCT-116
MOLT-4 = tested on: MOLT-4
U-251 = tested on: U-251
NCI-H522 = tested on: NCI-H522
SN12C = tested on: SN12C
NCI-H226 = tested on: NCI-H226
DMS-114 = tested on: DMS-114
HL-60 = tested on: HL-60
ACHN = tested on: ACHN
CCRF-CEM = tested on: CCRF-CEM
M14 = tested on: M14

| Compound | GI50 (CAKI-1) | GI50 (EKVX) | GI50 (IGROV-1) | GI50 (RXF 393) | GI50 (HOP-62) | GI50 (SW-620) | GI50 (SF-295) | GI50 (HCT-116) | GI50 (MOLT-4) | GI50 (U-251) | GI50 (NCI-H522) | GI50 (SN12C) | GI50 (NCI-H226) | GI50 (DMS-114) | GI50 (HL-60) | GI50 (ACHN) | GI50 (CCRF-CEM) | GI50 (M14) |
| --- | --- | --- | --- | --- | --- | --- | --- | --- | --- | --- | --- | --- | --- | --- | --- | --- | --- | --- |
| CC(=O)OC1CC2(O)C(CCC3(C)C(c4ccc(=O)oc4)CCC32O)C2(C)CCC(O)C=C12 (stereo not drawn) | 0.0375 µM (active) | 0.0139 µM (active) | 0.0195 µM (active) | 0.0375 µM (active) | 0.0375 µM (active) | 0.0375 µM (active) | 0.00955 µM (active) | 0.0375 µM (active) | 0.00182 µM (active) | 0.0169 µM (active) | 0.00174 µM (active) | 0.00462 µM (active) | 0.048 µM (active) | 0.00116 µM (active) | 0.00455 µM (active) |  |  |  |
| O=C1CCC2(c3ccc(Cl)cc3)Nc3ccccc3N12 (stereo not drawn) |  | > 100 µM (inactive) | > 100 µM (inactive) | 48.3 µM (inactive) | > 100 µM (inactive) | > 100 µM (inactive) | > 100 µM (inactive) | 57 µM (inactive) | 30.3 µM (inactive) | > 100 µM (inactive) | 55.5 µM (inactive) | > 100 µM (inactive) | 67.9 µM (inactive) | 45.2 µM (inactive) | 35.5 µM (inactive) | 60.4 µM (inactive) |  |  |
| Cc1ccc(C(=O)Nc2ncn(C3CC(O)C(CO)O3)c(=O)n2)cc1 (stereo not drawn) | > 100 µM (inactive) | > 100 µM (inactive) | > 100 µM (inactive) | > 100 µM (inactive) | > 100 µM (inactive) | > 100 µM (inactive) | > 100 µM (inactive) | > 100 µM (inactive) | > 29.6 µM (inactive) | > 100 µM (inactive) | > 100 µM (inactive) | > 100 µM (inactive) | > 100 µM (inactive) | > 100 µM (inactive) |  |  | > 100 µM (inactive) |  |
| CC(C(=O)OCc1ccccc1)N(Cc1ccccc1)Cc1ccccc1 (stereo not drawn) | > 100 µM (inactive) | > 100 µM (inactive) | > 100 µM (inactive) | 23.1 µM (inactive) | > 100 µM (inactive) | > 100 µM (inactive) | > 100 µM (inactive) | > 100 µM (inactive) | 33 µM (inactive) | 98.4 µM (inactive) | 29.2 µM (inactive) | > 100 µM (inactive) |  | 60.7 µM (inactive) | 21 µM (inactive) | 87.3 µM (inactive) | 53.5 µM (inactive) | > 100 µM (inactive) |
| CNS(=O)(=O)NN(C)S(=O)(=O)c1ccc(C)cc1 | > 100 µM (inactive) | > 100 µM (inactive) | > 100 µM (inactive) | > 100 µM (inactive) | > 100 µM (inactive) | > 100 µM (inactive) | > 100 µM (inactive) | > 100 µM (inactive) | > 100 µM (inactive) |  | > 100 µM (inactive) | > 100 µM (inactive) |  | > 100 µM (inactive) | > 100 µM (inactive) | > 100 µM (inactive) | > 100 µM (inactive) | > 100 µM (inactive) |
| CN(C)CCNC(=O)c1cccc2nc(-c3ccccc3)oc12 |  | 6.97 µM (inactive) | 44 µM (inactive) | 32.2 µM (inactive) | > 66.7 µM (inactive) | 39.2 µM (inactive) | 31.3 µM (inactive) | 32.1 µM (inactive) | 10.9 µM (inactive) | 46.9 µM (inactive) |  | 41.1 µM (inactive) | 29.1 µM (inactive) | 47.1 µM (inactive) | 8.18 µM (inactive) |  | 45.6 µM (inactive) |  |
| COc1cccc(C2SCc3nc4ccccc4n32)c1 (stereo not drawn) | 37.9 µM (inactive) | 46.3 µM (inactive) | 45.5 µM (inactive) | 53.6 µM (inactive) | > 100 µM (inactive) | 46.6 µM (inactive) | 35.7 µM (inactive) | 39.7 µM (inactive) | 66.1 µM (inactive) | 76.6 µM (inactive) |  | 99.1 µM (inactive) | 51.4 µM (inactive) | 21.3 µM (inactive) | 30.1 µM (inactive) | 39.1 µM (inactive) | > 100 µM (inactive) | 77.1 µM (inactive) |
| CC[C@@]1(O)C[C@H](OC2CC(N(C)C)C(OC3CC(O)C(OC4CC(O)C(O)C(C)O4)C(C)O3)C(C)O2)c2c(cc3c(c2O)C(=O)c2c(O)ccc(O)c2C3=O)[C@H]1C(=O)OC (stereo partly drawn) | 0.0082 µM (active) | 0.0413 µM (active) | < 0.023 µM (active) | 0.0356 µM (active) | 0.06 µM (active) | 0.00875 µM (active) | 0.0113 µM (active) | 0.00507 µM (active) | 0.0141 µM (active) | 0.084 µM (active) | 0.0343 µM (active) | 0.0148 µM (active) | 0.0427 µM (active) | 0.0853 µM (active) | 0.0448 µM (active) |  | < 0.0181 µM (active) |  |
| CC1=C(Cl)C=CP(=O)(OC(C)C)C1 (stereo not drawn) |  | > 100 µM (inactive) | > 100 µM (inactive) | > 100 µM (inactive) | > 100 µM (inactive) | 67.8 µM (inactive) | > 100 µM (inactive) | 37.2 µM (inactive) | 40.7 µM (inactive) | > 100 µM (inactive) | 27.8 µM (inactive) | > 100 µM (inactive) |  | > 100 µM (inactive) | 52 µM (inactive) | > 100 µM (inactive) | 37.5 µM (inactive) | 61.7 µM (inactive) |
| Cc1coc2c1C(=O)C(=O)c1ccccc1-2 | 1.86 µM (inactive) |  | 1.83 µM (inactive) | 1.74 µM (inactive) | 1.64 µM (inactive) | 1.41 µM (inactive) | 1.65 µM (inactive) | 0.301 µM (active) | 2.21 µM (inactive) | 1.61 µM (inactive) | 1.72 µM (inactive) | 0.838 µM (active) | 1.21 µM (inactive) | 0.161 µM (active) |  |  | 2.22 µM (inactive) | 1.35 µM (inactive) |
| CCCCCOc1ccc(/C=N\c2ccc(-c3ccc(/N=C\c4ccc(OCCCCC)cc4)c(OC)c3)cc2OC)cc1 |  | > 100 µM (inactive) | > 100 µM (inactive) | > 100 µM (inactive) | > 100 µM (inactive) | > 100 µM (inactive) | > 100 µM (inactive) | > 100 µM (inactive) | > 100 µM (inactive) | > 100 µM (inactive) | > 100 µM (inactive) | > 100 µM (inactive) | > 100 µM (inactive) | > 100 µM (inactive) | > 100 µM (inactive) |  | > 100 µM (inactive) |  |
| CC(=O)Nc1ccc(/C=C/c2ccc(NC(=O)Nc3ccc(/C=C/c4ccc(NC(C)=O)cc4S(=O)(=O)O)c(S(=O)(=O)O)c3)cc2S(=O)(=O)O)c(S(=O)(=O)O)c1 |  | > 100 µM (inactive) | > 100 µM (inactive) | > 100 µM (inactive) | > 100 µM (inactive) | > 100 µM (inactive) | > 100 µM (inactive) | > 100 µM (inactive) | > 100 µM (inactive) | > 100 µM (inactive) | > 100 µM (inactive) | > 100 µM (inactive) | 39.8 µM (inactive) | 60.5 µM (inactive) | 60.1 µM (inactive) |  | > 100 µM (inactive) |  |
| O=c1c2cccnc2ncn1CCCN1CCCCC1 | > 100 µM (inactive) | > 100 µM (inactive) | > 100 µM (inactive) | > 100 µM (inactive) | > 100 µM (inactive) | > 100 µM (inactive) | > 100 µM (inactive) | > 100 µM (inactive) | > 100 µM (inactive) | > 100 µM (inactive) | > 100 µM (inactive) | > 100 µM (inactive) | > 100 µM (inactive) | > 100 µM (inactive) |  | > 100 µM (inactive) | > 100 µM (inactive) | > 100 µM (inactive) |
